The record followed here is ChEMBL document CHEMBL1201862, “PubChem BioAssay data set” (2004).

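Five compound concentrations were applied to cells in 96-well plates for 48 hours; endpoints were derived by simple linear interpolation of the resulting dose-response curve. GI50: concentration for 50% inhibition of growth.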 Activity calls are given as the source filed them. No stated cut-off is given here; in the data, active = GI50 up to about 1.1 µM and inactive = higher. Where a SMILES comes first, the peptide text is derived from it. The star is where a group is joined. Cbz = O=C(OCc1ccccc1)*; Bn = c1ccc(C*)cc1 Where only a bound is given, the exact number is not on record here.

Holding throughout (assay): NCI-60 cell line screen, 48 h
Assay [1] relates to HT-29.
For assay [2], the system named is OVCAR-5.
In assay [3] the test system is HCC 2998.
The test system of assay [4] is NCI-H522.
For assay [5], the system named is UO-31.
Assay [6] relates to OVCAR-4.
Assay [7] deals with SF-539.
In assay [8] the test system is Malme-3M.
Assay [9] concerns MOLT-4.
Assay [10] concerns Hs-578T.
Assay [11] relates to A549.
For assay [12], the system named is SW-620.
For assay [13], the system named is TK-10.
In assay [14] the test system is T47D.
Assay [15] has as its system RXF 393.
In assay [16] the test system is SK-MEL-2.
Assay [17] concerns MDA-MB-231.
Assay [18] relates to SK-OV-3.
For assay [19], the system named is UACC-257.
For assay [20], the system named is SNB-19.

As for `Nc1c2c(=O)[nH]c(=O)c2c(N)c2c(=O)c3ccccc3c(=O)c12`, the GI50 in assay [1] is 0.977 µM (active); in assay [2], 1.82 µM (inactive); in assay [3], 4.48 µM (inactive); in [4], 3.35 µM (inactive); in assay [5], 3.81 µM (inactive); in assay [6] it was 1.21 µM (inactive). The GI50 was 2.04 µM (inactive) in assay [7]; 0.222 µM (active) in [8]; 3.68 µM (inactive) in assay [9]; 2.62 µM (inactive) in [10]; 0.897 µM (active) in assay [11]; 1.69 µM (inactive) in [12]. Moreover, the GI50 was 9.68 µM (inactive) in assay [13]; 3.94 µM (inactive) in assay [14]; 3.57 µM (inactive) in [15]; 2.07 µM (inactive) in assay [16]; 3.02 µM (inactive) in [17]; 7.23 µM (inactive) in [18]. Moreover, the GI50 in assay [19] is 1.69 µM (inactive); in assay [20] it was 3.29 µM (inactive).

For the compound `O=CC1C(Cl)=Nc2nc3ccccc3n2C1c1ccc([N+](=O)[O-])cc1` (stereo unspecified), the GI50 in assay [2] is 21.1 µM (inactive); in assay [3] it was 14 µM (inactive); in assay [4], 3.71 µM (inactive); in [5], 3.88 µM (inactive); in assay [6], 13.6 µM (inactive); in assay [7] it was 20.2 µM (inactive). Besides, the GI50 in assay [8] is 8.13 µM (inactive); in assay [9] it was 1.71 µM (inactive); in [10], 57.7 µM (inactive); in [11], 25.2 µM (inactive); in assay [12] it was 4.8 µM (inactive); in assay [13], 4.54 µM (inactive). The GI50 is 1.57 µM (inactive) in [14]; 2.93 µM (inactive) in assay [15]; 6.03 µM (inactive) in assay [16]; 14.9 µM (inactive) in [17]; 13.6 µM (inactive) in assay [19]; 16 µM (inactive) in [20].

Take `COc1ccc2c(c1)CCC(CN1CCN(CCOC(c3ccccc3)c3ccccc3)CC1)C2O` (stereo unspecified): the GI50 in assay [1] was 5.04 µM (inactive); in [2], 16.6 µM (inactive); in assay [3], 4.28 µM (inactive); in assay [4], 16.6 µM (inactive); in assay [5] it was 15.4 µM (inactive); in assay [6], 15.9 µM (inactive). Moreover, the GI50 in [7] is 11.3 µM (inactive); in assay [8], 17.5 µM (inactive); in assay [9], 11.8 µM (inactive); in [10], 19.3 µM (inactive); in assay [11], 18.2 µM (inactive); in assay [12], 20 µM (inactive). Also, the GI50 in assay [13] is 14.1 µM (inactive); in assay [14], 16.1 µM (inactive); in assay [15] it was 14.1 µM (inactive); in assay [16], 17.5 µM (inactive); in assay [17] it was 15.7 µM (inactive); in assay [18], 17.9 µM (inactive). In addition, the GI50 in assay [19] is 13 µM (inactive); in [20] it was 18.3 µM (inactive).

As for `CCCCOC(=O)NC(Nc1ccc(S(N)(=O)=O)cc1)(C(F)(F)F)C(F)(F)F`, the GI50 in assay [1] was > 100 µM (inactive); in assay [2] it was > 100 µM (inactive); in assay [3], > 100 µM (inactive); in assay [4], > 100 µM (inactive); in assay [5], 79.8 µM (inactive); in assay [7], > 100 µM (inactive). The GI50 in assay [8], in assay [9], in assay [10], in assay [13], in assay [14] and in assay [15] was > 100 µM (inactive) in each case. Moreover, the GI50 in assay [16], in assay [17], in [18], in [19] and in [20] was > 100 µM (inactive) throughout.

For `COC(=O)C(Cc1ccc(O)cc1)NC(=O)C(COCc1ccccc1)NC(=O)OCc1ccccc1` (stereo unspecified) (Cbz-Ser(Bn)-Tyr-OMe; configuration not given here), the GI50 in assay [1] was 15.1 µM (inactive); in assay [2] it was 19.8 µM (inactive); in assay [3] it was 4.06 µM (inactive); in assay [4] it was 22.5 µM (inactive); in [5] it was 21.9 µM (inactive); in [6], 19.4 µM (inactive). Further, the GI50 in assay [7] is 18.8 µM (inactive); in assay [8], 21.3 µM (inactive); in assay [9], > 100 µM (inactive); in assay [10], 24.6 µM (inactive); in assay [11], 19.4 µM (inactive); in assay [12] it was 18.8 µM (inactive). Further, the GI50 is 20 µM (inactive) in assay [13]; 17.7 µM (inactive) in [14]; 18.7 µM (inactive) in assay [15]; 23 µM (inactive) in assay [16]; 18.8 µM (inactive) in [17]; 17.4 µM (inactive) in [18]. Besides, the GI50 in assay [19] is 19.3 µM (inactive); in [20] it was 16.9 µM (inactive).

On to `CC1(c2nc3ccccc3[nH]2)CCC(CO)C(C)(C)O1` (stereo unspecified), for which the GI50 was > 100 µM (inactive) in [1]; > 100 µM (inactive) in assay [2]; > 100 µM (inactive) in [3]; > 100 µM (inactive) in [4]; 98.6 µM (inactive) in assay [5]; > 100 µM (inactive) in assay [6]. For the same compound, the GI50 in assay [7], in assay [8], in [9], in assay [10], in [11] and in [12] was > 100 µM (inactive) each time. Also, the GI50 in assay [13], in [14], in assay [15], in assay [16], in assay [17] and in [18] was > 100 µM (inactive) throughout. Further, the GI50 in [19] and in assay [20] was > 100 µM (inactive) each time.

In the case of `CC(C)(C)c1cc(C(=O)/C=C/c2ccc(C(=O)O)cc2)cc(C(C)(C)C)c1`, the GI50 in assay [1] is 3.05 µM (inactive); in assay [2], 4.9 µM (inactive); in assay [3], 1.82 µM (inactive); in [4], 4.34 µM (inactive); in assay [5] it was 5.47 µM (inactive); in assay [6], 6.14 µM (inactive). Further, the GI50 is 1.36 µM (inactive) in assay [7]; 1.42 µM (inactive) in assay [8]; 2.37 µM (inactive) in assay [9]; 1.42 µM (inactive) in [10]; 2.07 µM (inactive) in assay [11]; 3.42 µM (inactive) in assay [12]. The GI50 is 3.37 µM (inactive) in [13]; 5.56 µM (inactive) in [14]; 1.5 µM (inactive) in assay [15]; 2.94 µM (inactive) in assay [16]; 3.87 µM (inactive) in assay [17]; 2.87 µM (inactive) in [18]. In addition, the GI50 in assay [19] is 10.1 µM (inactive); in assay [20], 2.36 µM (inactive).

On to `COc1ccc2[nH]cc(C=C3C(=O)NC(=S)NC3=O)c2c1`, for which the GI50 in assay [1], in assay [2], in [3], in [4], in [5] and in assay [6] was > 100 µM (inactive) throughout. In addition, the GI50 in assay [7] is > 100 µM (inactive); in assay [8], > 100 µM (inactive); in assay [9], 62.4 µM (inactive); in [10], 45.8 µM (inactive); in [11] it was > 100 µM (inactive); in [12], > 100 µM (inactive). Moreover, the GI50 in [13] was 38.9 µM (inactive); in assay [14] it was > 100 µM (inactive); in assay [15], 30.3 µM (inactive); in assay [16] it was 92.3 µM (inactive); in assay [17], 48.6 µM (inactive); in assay [18], 52.2 µM (inactive). Also, the GI50 in assay [19] is > 100 µM (inactive); in [20] it was 62.1 µM (inactive).

`O=Cc1cccc2ccc3ccccc3c12`: the GI50 was 12.2 µM (inactive) in [1]; 26.2 µM (inactive) in assay [3]; 13.8 µM (inactive) in [4]; 24 µM (inactive) in [5]; 5.86 µM (inactive) in [7]; 16.4 µM (inactive) in assay [8]. The GI50 in [10] is 13.5 µM (inactive); in assay [11], 24.3 µM (inactive); in [12], 10.4 µM (inactive); in assay [13], 14.3 µM (inactive); in [14], 15 µM (inactive); in [15] it was 16.3 µM (inactive). Further, the GI50 in assay [16] is 15.1 µM (inactive); in [17], 17 µM (inactive); in [18], 16.5 µM (inactive); in [19], 32 µM (inactive); in assay [20], 7.8 µM (inactive).

In the case of `COc1cc(OC)c2nc(C)c3c(c2c1)OCC3`, the GI50 in [1] is > 100 µM (inactive); in [2], > 100 µM (inactive); in assay [3], > 100 µM (inactive); in [4], 72.9 µM (inactive); in [5], > 100 µM (inactive); in assay [6], > 100 µM (inactive). Besides, the GI50 was 86.7 µM (inactive) in assay [7]; > 100 µM (inactive) in assay [8]; > 100 µM (inactive) in assay [9]; 47.4 µM (inactive) in [10]; > 100 µM (inactive) in [11]; > 100 µM (inactive) in [12]. For the same compound, the GI50 in assay [13] is > 100 µM (inactive); in assay [14] it was > 100 µM (inactive); in assay [15] it was 22.6 µM (inactive); in assay [16], > 100 µM (inactive); in [17] it was 12.6 µM (inactive); in assay [19] it was > 100 µM (inactive). The GI50 in assay [20] was 47.3 µM (inactive).
